Assays:
[1] = test system: carrageenan (CRG)-elicited heat hyperalgesia; test: Carrageenan (CRG)-elicited heat hyperalgesia; assay type: in vivo, mice; settings: intraplantar pretreatment, 20 ng, 10 min before carrageenan
Experimental: Animals and pain models. Adult CD1 mice (male, 25-32 g) were used for most experiments. Knockout mice were used lacking TNFR1/II (Tnfrsf1a/1b^−/−) and TRPV1 (Trpv1^−/−) and C57BL/6 wild-type control mice, all from Jackson, for some experiments. All animal procedures performed in this study were approved by the Harvard Medical Area Standing Committee on Animals. 20 μl of diluted formalin (5%), carrageenan (CRG, 1%), or complete Freund's adjuvant (CFA) were injected into the plantar surface of a hindpaw to produce acute, persistent, or chronic inflammatory pain, respectively. Postoperative pain was also produced through hindpaw incision^36 and neuropathic pain by ligation of the spinal nerve^37.
(§1) Behavioral analysis. Mice were habituated in the testing environment for two days and performed behavioral testing in a blinded manner. Formalin-evoked spontaneous inflammatory pain was assessed by measuring duration (seconds) animals spent on licking/flinching the affected paws every 5 min for 45 min. Capsaicin-induced spontaneous pain was aslo assessed for 10 min. For testing mechanical sensitivity, mice were put in boxes on an elevated metal mesh floor and stimulated hindpaw with a series of von Frey hairs with logarithmically incrementing stiffness (0.02-2.56 grams, Stoelting), presented perpendicular to the plantar surface. It was determined the 50% paw withdrawal threshold using Dixon's up-down method^40. For testing heat sensitivity, mice were placed in plastic boxes and tested heat sensitivity using Hargreaves radiant heat apparatus (IITC Life Science Inc.). The basal paw withdrawal latency was adjusted to 9-12 seconds and set a cut-off of 20 seconds to prevent tissue damage. The percent maximal possible antinociceptive effect (% M.P.E) was calculated using the equation % M.P.E.=[(PL−BL2)/(BL1−BL2)]×100. BL1, baseline latency before inflammation; BL2, baseline latency after inflammation but before drug injection; PL, latency post drug injection.
Resolvins were also used for intraplantar injection. […]

[2] = test system: phosphorylation of ERK (pERK); test: ERK phosphorylation (pERK) in cultured DRG neurons; assay type: cell-based, mice; settings: dissociated DRG neurons; RvE1 10 ng/ml; TNF-α 10 ng/ml; capsaicin 500 nM
Experimental: Primary DRG culture. DRGs were aseptically removed from 4-week old mice and digested them first with collagenase (1.25 mg/ml)/dispase-II (2.4 units/ml) at 37° C. for 90 min then with 0.25% trypsin for 8 min at 37° C. DRG cells were mechanically dissociated with a flame polished Pasteur pipette in the presence of 0.05% DNAse I and plated these cells onto poly-D-lysine and laminin-coated slide chambers. DRG cells were grown in a neurobasal defined medium (with 2% B27 supplement, Invitrogen) in the presence of NGF (50 ng/ml) for 24 h and replaced the medium with NGF-free medium before stimulation. For immunocytochemistry, DRG cells were fixed with 4% paraformaldehyde for 30 min and incubated the cells with pERK primary antibody (rabbit, Cell signaling, 1:500) overnight.
Resolvins were also used for intraplantar injection. RvD1 or RvE1 was injected into the plantar surface of a hindapaw [20 ng, 20 μl , in 1% ethanol (Supplementary FIG. 5a, 5b) or in 10% ethanol (FIG. 2e, Supplementary FIG. 1d)]. […]
pERK immunocytochemistry in DRG neurons: DRG cells grown in slide chambers were fixed with 4% paraformaldehyde for 30 min and incubated with pERK primary antibody (Rabbit, Cell Signaling, 1:500) at 4° C. overnight. The stained cells were examined with a Nikon fluorescence microscope, and images in 3 randomly-selected optic fields from each chamber were captured with a CCD Spot camera. […]

[3] = test system: proinflammatory cytokines (TNF-α, IL-1β, IL-6) and chemokines (MCP-1, MIP-1α); test: Cytokine array of inflamed hindpaw skin after carrageenan; assay type: in vivo, mouse; settings: intraplantar RvE1 20 ng prior to CRG; 2 h after CRG
Experimental: The mouse cytokine array kits were purchased from R&D. Protein samples were prepared in the same way as for Western blotting analysis. Each reaction was performed according to manufacturer's protocol using 400 μg proteins. In brief, protein samples were incubated with a blot (array) that is pre-coated with 40 cytokines/chemokines for 24 h at 4° C. The remaining procedures were similar to that of Western blotting. Also see Gao et al., 2009^12.

[4] = test system: capsaicin-induced spontaneous pain; test: Capsaicin-induced acute spontaneous pain; assay type: in vivo, mice
Experimental: as §1, with “The percent maximal possible antinociceptive effect (% M.P.E) was calculated using the equation % M.P.E.=[(PL−BL2)/(BL1−BL2)]×100.” left out, “injection. Intrathecal injection: […] To examine whether pretreatment of RvE1 attenuates capsaicin-induced acute spontaneous pain, RvE1 and capsaicin were mixed and injected at the same time (FIG. 3f). […]” for “injection.”

Compound: CC[C@@H](O)/C=C/C=C\C[C@@H](O)/C=C/C=C/C=C\[C@@H](O)CCCC(=O)O [RvE1, 5S,12R,18R-trihydroxyeicosapentaenoic acid]
- CRG-evoked heat hyperalgesia [1]: substantially attenuated
- TNF-α- and capsaicin-elicited increases in phosphorylation of ERK (pERK) [2]: abolished
- expression of proinflammatory cytokines (TNF-α, IL-1β, IL-6) and chemokines (MCP-1, MIP-1α) in inflamed hindpaws [3]: reducing
- intrathecal capsaicin-evoked acute spontaneous pain ([4]; intrathecal RvE1 mixed with capsaicin 0.5 μg): prevented
- intraplantar capsaicin-induced acute pain ([4]; peripheral (intraplantar) RvE1 10 min before capsaicin 5 μg): reduced
